{"source": "paper PMC7005745", "about": "(Scientific Reports, 2020)", "key": {"yopE expression (T3SS)": {"system": "yopE expression (T3SS)", "assay_type": "cell-based, Yersinia pseudotuberculosis", "conditions": "for IC50: read-out: E-lux IC50"}, "YopH secretion (T3SS)": {"system": "YopH secretion (T3SS)", "assay_type": "cell-based, Yersinia pseudotuberculosis"}, "[1]": {"system": "Y. pseudotuberculosis serotype III strain YPIII(pIB102E-lux)", "assay_type": "cell-based, Yersinia pseudotuberculosis"}, "[2]": {"system": "ExoS expression (T3SS), PAK(pCS500)", "assay_type": "cell-based, Pseudomonas aeruginosa", "conditions": "read-out: IC50 ExoS-gfp"}, "[3]": {"system": "P. aeruginosa PAK(pCS500)", "assay_type": "cell-based, Pseudomonas aeruginosa"}, "[4]": {"system": "wild-type P. aeruginosa strain PAK infecting J774 cells"}, "[5]": {"system": "Y. pseudotuberculosis YPIII(pIB102; pFU95)", "assay_type": "cell-based, Yersinia pseudotuberculosis"}, "[6]": {"system": "secretion of Yop effector proteins (T3SS), YPIII(pIB102)", "assay_type": "cell-based, Yersinia pseudotuberculosis", "conditions": "40 µM, Western blot"}, "[7]": {"conditions": "yopE expression, YPIII(pIB102E-lux), T3S-inducing conditions, compounds 1–100 µM"}, "[8]": {"conditions": "YopH secretion, YPIII(pIB102E-lux), T3S-inducing conditions, compounds 1–100 µM"}, "[9]": {"conditions": "Y. pseudotuberculosis, LB with 2.5 mM CaCl2, 37 °C, OD600 up to 24 h"}, "[10]": {"conditions": "combined yopE-lux and YopH phosphatase assay"}}, "note": "Read-outs that look alike come from different tables or passages of the source.", "data": [{"compound": "(±)-Dehydro-ampelopsin B [compound 4]", "values": [{"measurement": "Inhibition of the T3SS (in words)", "setting": "yopE expression (T3SS)", "result": "no or modest inhibition"}, {"measurement": "IC50", "setting": "yopE expression (T3SS)", "result": 40, "unit": "µM"}, {"measurement": "IC50", "setting": "YopH secretion (T3SS)", "result": 20, "unit": "µM"}, {"measurement": "Growth inhibition", "setting": "[1]", "result": "No"}, {"measurement": "IC50", "setting": "[2]", "result": 33, "unit": "µM"}, {"measurement": "Tocxicity P.a.", "setting": "[3]", "result": "No"}, {"measurement": "Toxicity J774", "setting": "J774 cells", "result": "No"}, {"measurement": "Efficacy Pa J774", "setting": "[4]", "result": "No"}]}, {"compound": "Anigopreissin A [compound 11]", "values": [{"measurement": "Inhibition of yopE expression (in words)", "setting": "yopE expression (T3SS)", "result": "dose-dependent inhibition"}, {"measurement": "IC50", "setting": "yopE expression (T3SS)", "result": 12, "unit": "µM"}, {"measurement": "IC50", "setting": "YopH secretion (T3SS)", "result": 6, "unit": "µM"}, {"measurement": "Inhibition of YopH secretion (in words)", "setting": "YopH secretion (T3SS)", "result": "dose-dependent inhibition"}, {"measurement": "Growth inhibition", "setting": "[1]", "result": "detrimental effect on bacterial growth and Yes"}, {"measurement": "IC50", "setting": "[2]", "result": 15, "unit": "µM"}, {"measurement": "Tocxicity P.a.", "setting": "[3]", "result": "No"}, {"measurement": "Toxicity J774", "setting": "J774 cells", "result": "Some tox"}]}, {"compound": "Oc1ccc(/C=C/c2cc(O)cc3c2[C@@H](c2cc(O)cc(O)c2)[C@H](c2ccc(O)cc2)O3)cc1", "note": "(racemic) [compound 7, (±)-Cis-ε-viniferin (Omega-viniferin)]", "values": [{"measurement": "IC50", "setting": "yopE expression (T3SS)", "result": "> 50", "unit": "µM"}, {"measurement": "IC50", "setting": "YopH secretion (T3SS)", "result": 48, "unit": "µM"}, {"measurement": "Growth inhibition", "setting": "[1]", "result": "No"}]}, {"compound": "C#CCOc1ccc(-c2oc3cc(O)cc(/C=C/c4ccc(O)cc4)c3c2-c2cc(O)cc(O)c2)cc1", "note": "[compound 13, Propagylated viniferifuran]", "values": [{"measurement": "IC50", "setting": "yopE expression (T3SS)", "result": 6, "unit": "µM"}, {"measurement": "IC50", "setting": "YopH secretion (T3SS)", "result": 3, "unit": "µM"}, {"measurement": "Binding to bacteria", "setting": "[5]", "result": "clear binding"}, {"measurement": "Competition of binding by free viniferifuran", "setting": "[5]", "result": "binding could be outcompeted"}]}, {"compound": "(±)-δ-Viniferin [compound 9]", "values": [{"measurement": "IC50", "setting": "yopE expression (T3SS); [7]", "result": 29, "unit": "µM"}, {"measurement": "IC50", "setting": "YopH secretion (T3SS); [8]", "result": 15, "unit": "µM"}, {"measurement": "Growth inhibition", "setting": "[1]; [9]", "result": "No"}]}, {"compound": "Oc1ccc(/C=C\\c2cc(O)cc3oc(-c4ccc(O)cc4)c(-c4cc(O)cc(O)c4)c23)cc1", "note": "[compound 8, Viniferifuran]", "values": [{"measurement": "Inhibition of yopE expression (in words)", "setting": "yopE expression (T3SS); 1–100 µM, Fig. 1a", "result": "dose-dependent inhibition"}, {"measurement": "Inhibition of the T3SS (in words)", "setting": "yopE expression (T3SS); [10]", "result": "good inhibition"}, {"measurement": "IC50", "setting": "yopE expression (T3SS); [7]", "result": 10, "unit": "µM"}, {"measurement": "Inhibition of YopH secretion (in words)", "setting": "YopH secretion (T3SS); 1–100 µM, Fig. 1b", "result": "dose-dependent inhibition"}, {"measurement": "IC50", "setting": "YopH secretion (T3SS); [8]", "result": 4, "unit": "µM"}, {"measurement": "Growth inhibition", "setting": "[1]; [9]", "result": "without any effect on bacterial growth and No"}, {"measurement": "Reversibility of block of effector secretion (T3SS) after washing", "setting": "[6]", "result": "irreversibly block secretion of effector molecules"}, {"measurement": "Reversibility of block of effector secretion (T3SS) after washing", "setting": "[6]; listed as viniferifuran", "result": "irreversible"}, {"measurement": "IC50", "setting": "[2]", "result": 11, "unit": "µM"}, {"measurement": "Tocxicity P.a.", "setting": "[3]", "result": "No"}, {"measurement": "Toxicity J774", "setting": "J774 cells", "result": "Tox"}]}, {"compound": "Oc1ccc(-c2oc3ccc(/C=C/c4cc(O)cc(O)c4)cc3c2-c2cc(O)cc(O)c2)cc1", "note": "[compound 10, Dehydro-δ-viniferin]", "values": [{"measurement": "Inhibition of yopE expression (in words)", "setting": "yopE expression (T3SS); 1–100 µM, Fig. 1a", "result": "dose-dependent inhibition"}, {"measurement": "IC50", "setting": "yopE expression (T3SS); [7]", "result": 5, "unit": "µM"}, {"measurement": "Inhibition of YopH secretion (in words)", "setting": "YopH secretion (T3SS); 1–100 µM, Fig. 1b", "result": "dose-dependent inhibition"}, {"measurement": "IC50", "setting": "YopH secretion (T3SS); [8]", "result": 4, "unit": "µM"}, {"measurement": "IC50", "setting": "[2]", "result": 8, "unit": "µM"}, {"measurement": "Tocxicity P.a.", "setting": "[3]", "result": "No"}, {"measurement": "Toxicity J774", "setting": "J774 cells", "result": "Tox"}]}, {"compound": "Oc1ccc([C@H]2c3c(O)cc(O)cc3[C@H]3c4c(cc(O)cc4[C@@H]2O)O[C@@H]3c2ccc(O)cc2)cc1", "note": "(racemic) [compound 2, (±)-Ampelopsin A]", "values": [{"measurement": "Inhibition of the T3SS (in words)", "setting": "yopE expression (T3SS); [10]", "result": "no or modest inhibition"}, {"measurement": "IC50", "setting": "yopE expression (T3SS); [7]", "result": "> 50", "unit": "µM"}, {"measurement": "IC50", "setting": "YopH secretion (T3SS); [8]", "result": "> 50", "unit": "µM"}, {"measurement": "Growth inhibition", "setting": "[1]; [9]", "result": "No"}, {"measurement": "IC50", "setting": "[2]", "result": "> 200", "unit": "µM"}, {"measurement": "Tocxicity P.a.", "setting": "[3]", "result": "No"}, {"measurement": "Toxicity J774", "setting": "J774 cells", "result": "No"}, {"measurement": "Efficacy Pa J774", "setting": "[4]", "result": "No"}]}, {"compound": "Oc1ccc(/C=C/c2cc(O)cc3c2[C@@H](c2cc(O)cc(O)c2)[C@H](c2ccc(O)cc2)O3)cc1", "note": "(racemic) [compound 6, (±)-ε-Viniferin]", "values": [{"measurement": "IC50", "setting": "yopE expression (T3SS)", "result": "> 50", "unit": "µM"}, {"measurement": "IC50", "setting": "YopH secretion (T3SS)", "result": 30, "unit": "µM"}, {"measurement": "Growth inhibition", "setting": "[1]", "result": "No"}, {"measurement": "IC50", "setting": "[2]", "result": 89, "unit": "µM"}, {"measurement": "Tocxicity P.a.", "setting": "[3]", "result": "No"}, {"measurement": "Toxicity J774", "setting": "J774 cells", "result": "No"}, {"measurement": "Efficacy Pa J774", "setting": "[4]", "result": "No"}]}, {"compound": "Oc1ccc([C@@H]2Cc3cc(O)cc4c3[C@H](c3cc(O)cc(O)c32)[C@@H](c2ccc(O)cc2)O4)cc1", "note": "(racemic) [compound 3, (±)-Ampelopsin B]", "values": [{"measurement": "Inhibition of the T3SS (in words)", "setting": "yopE expression (T3SS)", "result": "no or modest inhibition"}, {"measurement": "IC50", "setting": "yopE expression (T3SS)", "result": "> 50", "unit": "µM"}, {"measurement": "IC50", "setting": "YopH secretion (T3SS)", "result": 40, "unit": "µM"}, {"measurement": "Growth inhibition", "setting": "[1]", "result": "No"}, {"measurement": "IC50", "setting": "[2]", "result": 134, "unit": "µM"}, {"measurement": "Tocxicity P.a.", "setting": "[3]", "result": "No"}, {"measurement": "Toxicity J774", "setting": "J774 cells", "result": "No"}, {"measurement": "Efficacy Pa J774", "setting": "[4]", "result": "No"}]}, {"compound": "Oc1ccc(/C=C/c2cc(O)cc3c2[C@@H](c2cc(O)cc(O)c2)[C@H](c2ccc(O)cc2)O3)cc1", "note": "[compound 5, (+)-ε-Viniferin]", "values": [{"measurement": "IC50", "setting": "yopE expression (T3SS); [7]", "result": "> 50", "unit": "µM"}, {"measurement": "IC50", "setting": "YopH secretion (T3SS); [8]", "result": 15, "unit": "µM"}, {"measurement": "Growth inhibition", "setting": "[1]; [9]", "result": "No"}, {"measurement": "Efficacy Pa J774", "setting": "[4]", "result": "modest or no efficacy"}]}, {"compound": "(-)-Hopeaphenol [compound 1, reference compound]", "values": [{"measurement": "IC50", "setting": "yopE expression (T3SS); [7]", "result": 10, "unit": "µM"}, {"measurement": "IC50", "setting": "YopH secretion (T3SS); [8]", "result": 7, "unit": "µM"}, {"measurement": "Growth inhibition", "setting": "[1]; [9]", "result": "No"}, {"measurement": "Reversibility of block of effector secretion (T3SS) after washing", "setting": "[6]", "result": "irreversibly block secretion of effector molecules"}, {"measurement": "Reversibility of block of effector secretion (T3SS) after washing", "setting": "[6]; listed as (-)-hopeaphenol", "result": "irreversible"}, {"measurement": "IC50", "setting": "[2]", "result": 9, "unit": "µM"}, {"measurement": "Tocxicity P.a.", "setting": "[3]", "result": "No"}, {"measurement": "Inhibition of T3SS-mediated cytotoxicity", "setting": "[4]; 50 µM", "result": "complete inhibition of cytotoxicity"}]}]}
